Columns and labels:
[1] = molecular target: T1, CNDP2 (Mus musculus, UniProt Q9D1A2); experiment: In situ live cell enzyme activity assay, CNDP2- or GFP-transfected HEK293T cells; assay type: cell-based; set-up: expressed in transfected cells; host or cells: HEK293T (lysate); conditions: role: product; BHB-treated; conditioned media
T1 sequence (Q9D1A2 1-475): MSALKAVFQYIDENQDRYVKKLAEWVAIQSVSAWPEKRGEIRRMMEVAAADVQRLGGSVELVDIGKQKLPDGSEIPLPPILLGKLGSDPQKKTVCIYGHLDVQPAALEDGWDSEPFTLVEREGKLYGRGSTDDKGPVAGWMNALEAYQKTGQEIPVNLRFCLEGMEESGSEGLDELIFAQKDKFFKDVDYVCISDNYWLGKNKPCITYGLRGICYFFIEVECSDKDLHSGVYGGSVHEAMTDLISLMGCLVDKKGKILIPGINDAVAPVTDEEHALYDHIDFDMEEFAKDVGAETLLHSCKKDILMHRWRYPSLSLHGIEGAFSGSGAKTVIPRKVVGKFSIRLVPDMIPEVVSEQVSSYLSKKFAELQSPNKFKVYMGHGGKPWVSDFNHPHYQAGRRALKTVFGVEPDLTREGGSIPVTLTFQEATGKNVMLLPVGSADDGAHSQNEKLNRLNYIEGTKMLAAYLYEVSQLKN
Procedure: Cellular enzyme activity assays. Cells were plated in 12-well plates at 70-80% confluence. The next day, cells were washed two times with PBS and incubated in 0.5 ml serum-free medium. After overnight incubation, 400 μl of medium was removed and 20 μl of 1 M HCl were added to acidify the medium and to protonate keto amino acids. Ethyl acetate (400 μl) was added into each sample and reactions were vortexed for 30 s to extract keto amino acids into the organic layer. Reactions were centrifuged at 4° C. for 10 min at 15,000 r.p.m. and total of 300 μl from the top layer was transferred to a new Eppendorf tube and dried down under a stream of nitrogen. The residue was re-suspended in 150 μl of an 2:1:1 mixture of acetonitrile: methanol: water. The mixture was centrifuged at 4° C. for 10 min at 15,000 r.p.m. and the supernatant was transferred to a LC-MS vial. Cells were kept on ice to collect the lysate. PBS (150 μl) was added into each well and the cells scraped into an Eppendorf tube. This step was repeated again to ensure all cells were collected. Cells were then centrifuged at 4° C. for 10 min at 2,000g and the supernatant removed to obtain the cell pellet. A volume of 150 μl of a 2:1:1 mixture of acetonitrile: methanol:water mixture was used to lyse the cells and precipitate large proteins. […]

[2] = test system: DIO mice; experiment: Plasma ghrelin, leptin and GDF-15 in DIO mice; assay type: in vivo, mouse; conditions: 50 mg/kg IP, single; 1 h
Procedure: Leptin, ghrelin and GDF-15 measurements. Plasma was collected from DIO mice 1 h after the administration of BHB-Phe (50 mg/kg, IP) or vehicle. ELISA kits for leptin (Crystal Chem 90030), ghrelin (Cayman Chemicals 10006307) and GDF-15 (R&D Systems DY6385-05) were used following manufacturer's instructions.

[3] = Keto-Med study, plasma metabolites; assay type: in vivo; conditions: human; 4 weeks WFKD vs baseline
Procedure: Targeted metabolomics. Targeted measurements were performed using an Agilent 6470 triple quadrupole LC-MS instrument. MS analysis was performed using AJS in negative mode. The AJS source parameters were set as follows: the dry gas temperature was set at 250° C. with a gas flow of 12 l/min and the nebulizer pressure at 25 psi; the sheath gas temperature was set to 300° C. with the sheath gas flow set at 12 l/min; and the capillary voltage was set to 3,500 V. Separation of polar metabolites was performed as described above in the ‘Untargeted measurements of metabolites by LC-MS’ section. Multiple reaction monitoring was performed for the indicated metabolites with the listed dwell times, fragmentor voltage, collision energies, cell accelerator voltages and polarities. Quantification of the endogenous metabolite concentrations were performed by generating a standard curve with known concentrations of each metabolite. Metabolite standards were analyzed alongside the plasma samples using the same targeted triple quadrupole LC/MS method. A calibration standard curve generated from the metabolite standard concentrations and total peak areas were used to calculate the concentrations of each endogenous metabolite. The dilution of the plasma during the sample preparation was also taken into account for the quantification.
Keto-Med study. Keto-Med was a single-site, randomized, crossover, interventional trial comparing 2 metabolically distinct diets (well-formulated ketogenic diet, WFKD; and Mediterranean-plus diet, Med-Plus) among individuals with prediabetes and T2DM. Forty participants aged ≥18 years with prediabetes or T2DM followed the WFKD and the Med-Plus for 12 weeks each, in random order. Participants were randomly assigned into 1 of 2 different diet sequences: WFKD for 12 weeks (phase 1) and then the Med-Plus for 12 weeks (phase 2), or the opposite order. Ad libitum intake was advised, and participants were guided to follow 2 sets of dietary guidelines that shared 3 important similarities (incorporating nonstarchy vegetables and avoiding added sugars and refined grains) and 3 important differences (incorporating compared with avoiding legumes, fruits, and whole, intact grains). During the WFKD phase, participants were counseled to sustain nutritional ketosis by limiting carbohydrates to 20-50 g/day and keeping proteins to ~1.5 g/kg ideal body weight/day, with the remaining kcals coming from fats. Participants were also instructed to consume >3 servings/day of nonstarchy vegetables and maintain adequate mineral and fluid intake for the ketogenic state (sodium, 3-5 g/day; potassium, 3-4 g/day). […]

Question: Which results are given for CC(O)CC(=O)N[C@@H](Cc1ccccc1)C(=O)O (stereo partly drawn) [BHB-Phe, N-betahydroxybutyryl-phenylalanine]?
Answer: keto amino acid production in CNDP2-transfected live cells [1]: robust production; plasma GDF15 [2]: unaltered; plasma ghrelin [2]: unaltered; plasma leptin [2]: unaltered

Question: For CC(O)CC(=O)N[C@H](C(=O)O)C(C)C (stereo partly drawn) [BHB-Val, N-betahydroxybutyryl-valine], which “induction of plasma keto amino acids on WFKD” value [3] is on record?
Answer: Robust induction

Question: What about the “keto amino acid production in CNDP2-transfected live cells” value [1] of the same molecule?
Answer: robust production
